Test results from patent US20170184612A1, “USE OF LEUKOCYTES AND NOVEL BIOMARKERS IN THE DIAGNOSIS, CONFIRMATION, AND TREATMENT OF A NEUROLOGICAL DISORDER” (The Trustees of Columbia University in the City of New York, priority 2014, published 2017).

Columns and labels:
[1] = tested on: peripheral blood mononuclear cells (PBMC), T cells; assay: ELISpot assay, gamma-interferon release (SFC) after stimulation with a-synuclein epitope pools; type: cell-based, human; conditions: for Pool +: IFNg, Pool Stimulated, number of donors with a positive response, Donors tested 1
Method: (§1) Blood from age matched controls and PD patients were obtained and mononuclear cells were isolated by gradient centrifugation.
(§2) Release of the cytokines gamma-interferon, which measures activation of CD4+ and/or CD8+ T cells, and the interleukin, IL-5, which measures activation of CD4+ T cells was measured by ELISpot assay. […] After 22 hours of stimulation at 37 C, the cells were removed and release of cytokines was measured by colorimetric detection of spot-forming cells (SFC). Confirmed release of cytokine is determined by the presence of a minimum of 20 SFC per million cells.
(§3) The binding algorithms in SubAim 1 predict how well the peptides would bind to MHC if present, but not if they are present in patients. To determine this, the presence of T cell response against the candidate antigens by patient blood-derived peripheral blood mononuclear cells (PBMC) is assessed by ELISPOT assays upon stimulation with the peptides. This assay detects and quantifies cytokine release (in this case, IFNγ and IL-5) from specific activated T cells.
(§4) Data were obtained from blood samples (25 ml) from 44 PD patients and 24 age-matched controls. The experiments were conducted blindly. PBMCs from these samples were isolated and exposed to pools comprising the 122 candidate class I and class II antigens and phosphorylated S129 epitopes generated in Subaim 1. For the PBMCs responsive to the pooled peptides, the response was then deconvoluted to identify individual epitopes.
(§5) PMBC fractions are recovered by standard methods with Ficoll gradient and T cells expansion (Oseroff et al., 2010). The methods for the analysis of T cell reactions and measurement of cytokines production using the enzyme-linked immunosorbent spot (ELISPOT) assay are published in analogous experiments to discover antigens in multiple sclerosis (Lolli et al., 2013) and in hay fever allergens (Oseroff et al., 2010). T cell responses are determined by measuring IFNγ and IL-5 release by ELISPOT. Statistical analysis of differences between populations is expected to be non-parametric and analyzed with the U-Mann-Whitney test. If there were a normal distribution of response, which is a priori unlikely as some patients have no T cell response, with an SD=1, 8 patients per group would be required to provide a p>90% that the study detect a >2 fold difference at a two-sided 0.05 significance level.

[2] = tested on: peripheral blood mononuclear cells (PBMC), T cells; assay: ELISpot assay, IL-5 release (SFC) after stimulation with a-synuclein epitope pools; type: cell-based, human
Method: as §1, §2, §3, §4, §5

[3] = Patients Summary, PD patients, of donors tested (peptide)
[4] = Patients Summary, PD patients, single peptide
[5] = number of donors positive to the single peptide, second 'Pool Stimulated' section (from r296), 12 donors tested
[6] = peptide + / donors tested (peptide), second 'Pool Stimulated' section (from r296), 12 donors tested
[7] = single peptide, second 'Pool Stimulated' section (from r296), 12 donors tested
[8] = pool 'Phospho' (phosphorylated peptides)
[9] = Patients Summary, Phospho pool peptides
[10] = Patients Summary, Phospho pool peptides, 10 donors tested
[11] = peptides of pool 'Poshpho', 8 donors tested
[12] = peptides of pool 'Poshpho', 8 donors tested, number of donors positive

Substance | Pool + [1] | IFNg Peptide + (donors positive to the peptide) [1, 3] | IFNg Response Frequency [1, 4] | IFNg Total SFC [1, 4] | IFNg Peptide + [1, 5] | IFNg Response Frequency [1, 6] | IFNg Total SFC [1, 7] | IL-g Peptide + (donors positive to the peptide) [2, 3] | IL-g Response Frequency [2, 4] | IL-g Total SFC [2, 4] | IL-g Peptide + [2, 5] | IL-g Response Frequency [2, 6] | IL-g Avg SFC [2, 7] | IL-g Total SFC [2, 7] | Pool + [1, 8] | IFNg Avg SFC [1, 9] | IFNg Response Frequency [1, 9] | IFNg Total SFC [1, 9] | IFNg Peptide + (donors positive to the peptide) [1, 10] | IFNg Avg SFC [1, 11] | further results
3521.0051 (EEGAPQEGIL; listed as Homo sapiens) | 1 | 1 | 25% | 427 SFC | 1 | 50% | 554 SFC | 0 | 0% | 0 SFC | 1 | 50% | 1028 SFC | 1028 SFC | – | – | – | – | – | – | IFNg Avg SFC [1, 4]: 427 SFC; IFNg Avg SFC [1, 7]: 554 SFC
3521.0055 (QEGILEDMPV; listed as Homo sapiens) | 0 | 0 | 0% | 0 SFC | 0 | 0% | – | 0 | 0% | 0 SFC | 1 | 50% | 58 SFC | 58 SFC | – | – | – | – | – | – | –
3521.0028 (MPSEEGYQDY; listed as Homo sapiens) | 0 | 0 | 0% | 0 SFC | 0 | 0% | – | 0 | 0% | 0 SFC | 0 | 0% | – | 0 SFC | 1 | 420 SFC | 30% | 1260 SFC | 3 | 40 SFC | IFNg Response Frequency [1, 11]: 13%; IFNg Total SFC [1, 11]: 40 SFC; IFNg Peptide + [1, 12]: 1; IL-g Avg SFC [2, 9]: 350 SFC; IL-g Response Frequency [2, 9]: 20%; IL-g Total SFC [2, 9]: 700.3 SFC; IL-g Peptide + (donors positive to the peptide) [2, 10]: 2; IL-g Avg SFC [2, 11]: 113 SFC; IL-g Response Frequency [2, 11]: 13%; IL-g Total SFC [2, 11]: 113 SFC; IL-g Peptide + [2, 12]: 1
3521.0007 (AAATGFVKK; listed as Homo sapiens) | 0 | 0 | 0% | 0 SFC | 0 | 0% | 0 SFC | 0 | 0% | 0 SFC | 0 | 0% | – | 0 SFC | – | – | – | – | – | – | –
3521.0023 (YEMPSEEGY; listed as Homo sapiens) | 0 | 0 | 0% | 0 SFC | 0 | 0% | – | 0 | 0% | 0 SFC | 1 | 50% | 58 SFC | 58 SFC | 1 | 680 SFC | 30% | 2039 SFC | 3 | 333 SFC | IFNg Response Frequency [1, 11]: 13%; IFNg Total SFC [1, 11]: 333 SFC; IFNg Peptide + [1, 12]: 1; IL-g Avg SFC [2, 9]: 1593 SFC; IL-g Response Frequency [2, 9]: 10%; IL-g Total SFC [2, 9]: 1593 SFC; IL-g Peptide + (donors positive to the peptide) [2, 10]: 1; IL-g Avg SFC [2, 11]: 193 SFC; IL-g Response Frequency [2, 11]: 13%; IL-g Total SFC [2, 11]: 193 SFC; IL-g Peptide + [2, 12]: 1
